The source of these data is publication PMC8421423, “Cellular model system to dissect the isoform-selectivity of Akt inhibitors” (Nature Communications, 2021).

Several values for one entry are separate records, joined by “and”; a condition that tells them apart may be missing. Identical values can stand only once. Like-named read-outs stand apart in the source and are kept apart here.

Data set [1] can be described thus: CellTiter-Glo cell viability assay. Format: cell-based, murine. The following applies: mouse, cell viability. For orientation: ATP-based viability assays read luminescence as a measure of living cells.
In data set [2] the test system is parental Ba/F3 cells. As to the kind of experiment: CellTiter-Glo cell viability assay. Format: cell-based, murine.
Data set [3] concerns pAkt^S473 and downstream targets in Ba/F3 myr-Akt1. The following applies: Ba/F3 myr-Akt1, 4-h treatment.
Data set [4] relates to Ba/F3^myr-Akt1 cells. As to the kind of experiment: CellTiter-Glo cell viability assay.
In data set [5] the test system is Ba/F3^myr-Akt2 cells. The data set can be described thus: CellTiter-Glo cell viability assay.
The test system of data set [6] is Ba/F3^myr-Akt3 cells. As to the kind of experiment: CellTiter-Glo cell viability assay.
Data set [7] addresses Akt1 (Homo sapiens, UniProt P31749). As to the kind of experiment: STK HTRF KinEASE activity-based assay (IC50). Conditions: biochemical activity based assay, log units. (In general: Time-resolved FRET reads energy transfer from a long-lived donor to a nearby acceptor.)
Procedure: The biochemical half maximal inhibitory concentrations (IC50) were determined with the STK HTRF KinEASE assay (Cisbio) according to the manufactor’s instructions. Briefly: 5 µL Kinase solution and 2.5 µL inhibitor solution (8% DMSO in HTRF buffer) were incubated for 1 h before the reaction was started by addition of 2.5 µL starting solution containing ATP and substrate peptide. […] After reaction completion (Akt1: 60 min, Akt2: 20 min, Akt3: 15 min), 10 µL of stop solution were added. […] The quotient of both intensities were recorded at eight different inhibitor concentrations and data fit to a Hill 4-parameter equation with Quattro software suite (Quattro Research GmbH, Martinsried, Germany). Each reaction was performed in duplicates and at least three independent determinations of each IC50 were made.
Setting [8] is: Mus musculus, BaF3, parental cells, mean of replicates, read-out: CTG BaF3, Mean.
Where [9] appears, read: parental cells, single replicates, read-out: CTG BaF3, individual determinations.
Setting [10] is: Mus musculus, read-out: CTG BaF3myr-Akt1, Mean, mean of replicates.
The mark [11] stands for this setting: Mus musculus, read-out: CTG BaF3myr-Akt1, individual determinations, single replicates.
Setting [12] is: cell viability assay Ba/F3 myr-Akt cells, log units.
Setting [13] is: read-out: CTG BaF3myr-Akt1, individual determinations, single replicates.
Where [14] appears, read: Mus musculus, read-out: CTG BaF3myr-Akt2, Mean, mean of replicates.
Setting [15] is: read-out: CTG BaF3myr-Akt2, individual determinations, single replicates.

Chain of Akt1 (P31749 whole entry): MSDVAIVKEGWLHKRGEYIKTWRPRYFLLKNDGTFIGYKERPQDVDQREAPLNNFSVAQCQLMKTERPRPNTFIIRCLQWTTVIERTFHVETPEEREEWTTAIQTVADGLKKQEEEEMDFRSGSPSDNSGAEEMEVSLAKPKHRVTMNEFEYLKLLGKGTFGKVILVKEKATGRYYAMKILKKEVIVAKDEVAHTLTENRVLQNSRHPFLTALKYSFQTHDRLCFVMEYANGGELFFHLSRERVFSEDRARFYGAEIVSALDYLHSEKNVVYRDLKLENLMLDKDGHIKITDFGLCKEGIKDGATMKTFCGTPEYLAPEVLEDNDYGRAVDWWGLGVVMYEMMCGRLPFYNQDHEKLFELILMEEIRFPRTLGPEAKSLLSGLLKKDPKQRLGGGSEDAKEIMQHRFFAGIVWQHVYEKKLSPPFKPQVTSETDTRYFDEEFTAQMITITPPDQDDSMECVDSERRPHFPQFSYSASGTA

The viability is a read-out of living cells in per cent, often relative to untreated cells. As to `C=CC(=O)Nc1ccc2[nH]c(=O)n(C3CCN(Cc4ccc(-c5nc(C)c(=O)[nH]c5-c5ccccc5)cc4)CC3)c2c1` [15a, reference compound], the viability at 3 days, 0.0001 µM in data set [1] was 107%. The EC50 in data set [2] (Mus musculus, BaF3, CTG, parental BaF3 cell line, read-out: EC50 BaF3) was over 30 µM; in data set [2] (setting [8]) it was over 30 µM; in data set [2] (Mus musculus, BaF3, parental cells, single replicates, read-out: CTG BaF3, individual determinations) it was over 30 µM; in data set [2] (setting [9]) it was over 30 µM; in data set [4] (setting [10]), 7.21 µM; in data set [4] (setting [11]) it was 7.37 µM. Further, the EC50 in data set [4] (setting [13]) was 7.33 µM and 7.9 µM and 6.25 µM; in data set [5] (setting [14]) it was 14.9 µM; in data set [5] (setting [15]), 13.5 µM and 21.4 µM and 14.1 µM and 10.4 µM; in data set [6] (Mus musculus, read-out: CTG BaF3myr-Akt3, individual determinations, single replicates), over 30 µM; in data set [6] (read-out: CTG BaF3myr-Akt3, individual determinations, single replicates), > 30 µM (2×) and 17.8 µM. Further, in data set [3], the “pAkt and downstream targets (immunoblot)” value is “more potent towards myr-Akt1 than myr-Akt2 and myr-Akt3”. Also, the viability at 0.0001 µM in data set [4] (Mus musculus, read-out: cell viability, CTG, myr-Akt1, 0.1 nM, single replicates) came to 107%; in data set [5] (Mus musculus, read-out: cell viability, CTG, myr-Akt2, 0.1 nM, single replicates), 100%; in data set [6] (Mus musculus, read-out: cell viability, CTG, myr-Akt3, 0.1 nM, single replicates), 105%. Further, the viability at 5 µM came to 72.2% in data set [4] (Mus musculus, read-out: cell viability, CTG, myr-Akt1, 5000 nM, single replicates); 96.1% in data set [5] (Mus musculus, read-out: cell viability, CTG, myr-Akt2, 5000 nM, single replicates); 99.8% in data set [6] (Mus musculus, read-out: cell viability, CTG, myr-Akt3, 5000 nM, single replicates). Moreover, the “Log ratio EC50 [Akt] / EC50 [Akt], Akt1 / Akt2” value in data set [4] (setting [12]) is on record as -0.31. Moreover, in data set [6] (setting [12]), the “Log ratio EC50 [Akt] / EC50 [Akt], Akt3 / Akt2” value was -0.26. In addition, the “Log ratio IC50 [Akt] / IC50 [Akt], Akt1 / Akt2” value in data set [7] is listed as -2.52.

Take `NC1(C(=O)N[C@@H](CCO)c2ccc(Cl)cc2)CCN(c2ncnc3[nH]ccc23)CC1` [Capivasertib, reference compound]: the EC50 in data set [2] (setting [8]) was 16 µM; in data set [2] (setting [9]) it was 11 µM and 13.9 µM and 23 µM; in data set [4] (setting [10]), 1.07 µM; in data set [4] (setting [11]) it was 1.29 µM; in data set [4] (setting [13]), 0.706 µM and 1.2 µM and 1.1 µM; in data set [5] (setting [14]), 0.938 µM. Further, the EC50 in data set [5] (Mus musculus, read-out: CTG BaF3myr-Akt2, individual determinations, single replicates) is 1.14 µM; in data set [5] (setting [15]) it was 1.07 µM and 0.6 µM. The “pAkt and downstream targets (immunoblot)” value in data set [3] is recorded as “less effective”.
